Experiments:
Format in all cases: functional
Mus musculus [1] = assay: Inhibition of SERT-mediated serotonin-reuptake assessed as 5-hydroxytryptophan induced mouse head twitch at 6.47 mM/kg, ip after 20 mins; set-up: scale not given: the % may be the effect or the level left
Mus musculus [2] = assay: Inhibition of NET-mediated norepinephrine-reuptake assessed as yohimbine induced mortality in mouse at 3.24 mM/kg, ip after 24 hrs; set-up: scale not given: the % may be the effect or the level left
Mus musculus [3] = assay: Inhibition of NET-mediated norepinephrine-reuptake assessed as yohimbine induced mortality in intraperitoneally dosed mouse after 24 hrs; settings: ip
Mus musculus [4] = assay: Inhibition of SERT-mediated serotonin-reuptake assessed as 5-hydroxytryptophan induced mouse head twitch at 1.62 mM/kg, ip after 20 mins; set-up: scale not given: the % may be the effect or the level left
Mus musculus [5] = assay: Inhibition of NET-mediated norepinephrine-reuptake assessed as yohimbine induced mortality in mouse at 9.71 mM/kg, ip after 24 hrs; set-up: scale not given: the % may be the effect or the level left
Mus musculus [6] = assay: Inhibition of SERT-mediated serotonin-reuptake assessed as 5-hydroxytryptophan induced intraperitoneally dosed mouse head twitch after 20 mins; settings: ip
Mus musculus [7] = species: Mus musculus; assay: Selectivity ratio of ED50 for 5-HT reuptake in mouse to ED50 for norepinephrine reuptake in mouse
Mus musculus [8] = assay: Inhibition of SERT-mediated serotonin-reuptake assessed as 5-hydroxytryptophan induced mouse head twitch at 3.24 mM/kg, ip after 20 mins; set-up: scale not given: the % may be the effect or the level left
Mus musculus [9] = assay: Inhibition of NET-mediated norepinephrine-reuptake assessed as yohimbine induced mortality in mouse at 6.47 mM/kg, ip after 24 hrs; set-up: scale not given: the % may be the effect or the level left
Mus musculus [10] = assay: Inhibition of NET-mediated norepinephrine-reuptake assessed as yohimbine induced mortality in mouse at 25.89 mM/kg, ip after 24 hrs; set-up: scale not given: the % may be the effect or the level left
Mus musculus [11] = assay: Inhibition of SERT-mediated serotonin-reuptake assessed as 5-hydroxytryptophan induced mouse head twitch at 12.94 mM/kg, ip after 20 mins; set-up: scale not given: the % may be the effect or the level left
Mus musculus [12] = assay: Inhibition of NET-mediated norepinephrine-reuptake assessed as yohimbine induced mortality in mouse at 12.94 mM/kg, ip after 24 hrs; set-up: scale not given: the % may be the effect or the level left
Mus musculus [13] = assay: Inhibition of SERT-mediated serotonin-reuptake assessed as 5-hydroxytryptophan induced mouse head twitch at 4.86 mM/kg, ip after 20 mins; set-up: scale not given: the % may be the effect or the level left
Mus musculus [14] = assay: Inhibition of NET-mediated norepinephrine-reuptake assessed as yohimbine induced mortality in mouse at 19.42 mM/kg, ip after 24 hrs; set-up: scale not given: the % may be the effect or the level left

SMILES | Activity (Mus musculus [1]) | Activity (Mus musculus [2]) | ED50 (Mus musculus [3]) | Activity (Mus musculus [4]) | Activity (Mus musculus [5]) | ED50 (Mus musculus [6]) | Ratio ED50 (Mus musculus [7]) | Activity (Mus musculus [8]) | Activity (Mus musculus [9]) | Activity (Mus musculus [10]) | Activity (Mus musculus [11]) | Activity (Mus musculus [12]) | Activity (Mus musculus [13]) | Activity (Mus musculus [14])
CN(C)CCCN1c2ccccc2CCc2ccc(Cl)cc21 [CLOMIPRAMINE] | 83.3% | 16.67% | 5780 µmol/kg | 50% | 66.67% | 2 µmol/kg | 0.35 | 50% | – | – | – | – | – | –
CN1C2CCC1CC(Oc1ccc(Br)cc1)(c1ccccc1)C2 (stereo not drawn) | 50% | – | 11400 µmol/kg | – | – | – | 0.56 | 33.33% | 16.67% | 100% | 66.67% | 50% | – | –
CN1C2CCC1CC(Oc1ccc([N+](=O)[O-])cc1)(c1ccccc1)C2 (stereo not drawn) | Toxic | 0% | 10300 µmol/kg | 33.33% | – | 2.94 µmol/kg | 0.29 | 50% | 50% | Toxic | – | 50% | 66.67% | –
CN1C2CCC1CC(Oc1ccc(C#N)cc1)(c1ccccc1)C2 (stereo not drawn) | 66.67% | 50% | 4080 µmol/kg | 16.67% | – | 4.44 µmol/kg | 1.08 | 33.33% | 50% | – | – | 83.33% | – | –
CN(C)CCCC1(c2ccc(F)cc2)OCc2cc(C#N)ccc21 (stereo not drawn) [CITALOPRAM] | 100% | – | 13700 µmol/kg | 50% | – | 1.58 µmol/kg | 0.12 | 83.33% | 0% | – | – | 16.67% | – | –
CN1C2CCC1CC(Oc1ccc(C(F)(F)F)cc1)(c1ccccc1)C2 (stereo not drawn) | 66.67% | – | 11300 µmol/kg | – | – | 3.3 µmol/kg | 0.29 | 50% | 0% | 100% | 83.33% | 66.67% | – | 66.67%
CNCCC(Oc1ccc(C(F)(F)F)cc1)c1ccccc1 (stereo not drawn) [FLUOXETINE] | 50% | 0% | > 12900 µmol/kg | – | – | 5.09 µmol/kg | <0.39 | 16.67% | 0% | – | 100% | 0% | – | –
CN1C2CCC1CC(Oc1ccc(C#N)cc1)(c1ccc(F)cc1)C2 (stereo not drawn) | Toxic | 16.67% | 5020 µmol/kg | 33.33% | – | 2.94 µmol/kg | 0.59 | 50% | 66.67% | – | – | 100% | 66.67% | –
CN1C2CCC1CC(Oc1cccc(C(F)(F)F)c1)(c1ccccc1)C2 (stereo not drawn) | 50% | 0% | 53100 µmol/kg | – | – | 5.46 µmol/kg | 0.1 | 33.33% | 16.67% | Toxic | 83.33% | 33.33% | – | Toxic
CN1C2CCC1CC(Oc1ccc(Cl)cc1)(c1ccccc1)C2 (stereo not drawn) | 66.67% | – | 16100 µmol/kg | – | – | 4.72 µmol/kg | 0.29 | 33.33% | 33.33% | 66.67% | 83.33% | 33.33% | – | –

Source: ChEMBL document CHEMBL1140502, “Synthesis of some tropane derivatives of anticipated activity on the reuptake of norepinephrine and/or serotonin” (2007)
